Results: a melting point compilation (Tetko et al.; mined from patent text by program, amines drawn as free bases though some values may be those of a salt)

melting point [°C] | Compound
158 | Cc1cc(CN(C)c2cc(-c3ccc(Cl)cc3)nn2C)cc(C)c1OC(C)(C)C(=O)O
43 to 44 | CCCCCCCCCCCCCCCC(=O)OCC(COC(=O)CCCCCCCCCCCCCCC)OC(=O)C1C=CC=CC1(O)C(C)=O (stereo not drawn)
228 to 231 | CCCC(=O)c1c[nH]c2cc(COC(=O)c3ccccc3)ccc2c1=O
212 to 213 | CC(C)(C)c1cc(-c2c[nH]c(CNC(=O)OCc3ccccc3)n2)cc(C(C)(C)C)c1O
219 to 220 | CCCSc1sc(C(N)=O)c2c1-c1nn(C(C)=O)cc1CC2
96 | CCCCOc1cc(/C=C(\OCC)C(=O)O)ccc1OCCc1ccc(OS(=O)(=O)CCCC)cc1
282 to 283 | CCCCCCCCc1ccc(NC(=O)Nc2ccc(S(N)(=O)=O)cc2)cc1
205 to 206 | CC(C)n1nc(-c2cc(C(=O)NCc3ccccc3)cnc2-c2ccccc2)ccc1=O
165 | CON=C(C(=O)OC)c1csc(N)n1
168 to 170 | CC(C)c1cc2cc(OCC(=O)O)c(Cl)c(Cl)c2s1
108 to 109 | CCN(CC)C(=O)n1c(SC(F)(F)C(F)F)nc(-c2ccccc2)c1-c1ccccc1
143 to 145 | CN1c2ccccc2N(C(=O)CNC(C)(C)C)c2ccccc2S1(=O)=O
157 to 159 | CCc1nnc2c(N(C(C)=O)C(C)=O)nc3ccccc3n12
115 | CN(CCCNC(=O)NCCCCOc1cccc(CN2CCCCC2)c1)CCN(Cc1ccc(F)cc1)c1ccccn1
247 | COc1ccc(-c2[nH]nc3c2C(=O)c2c(NC(=O)NNC(=O)c4ccc(N)cc4)cccc2-3)cc1
151 to 154 | CCOC(=O)c1ccc(NC(=O)C=C(c2ccc(C)cc2)c2ccc(C)cc2)cc1
86 to 88 | COC(=O)CC(C#N)Cc1ccc(Cl)cc1Cl (stereo not drawn)
176 to 178 | O=c1n(CCCN2CCC(n3c(=O)[nH]c4ccccc43)CC2)nc2n1-c1ccccc1OC2
58 to 59 | CCCc1c(OCCCOc2ccc3c(c2CCC)OC(C(C)=O)(C(=O)OC)CC3)ccc(C(C)=O)c1O (stereo not drawn)
254 | NC(=O)Cc1cccc(-c2csc(N=C(N)N)n2)n1
172 to 174 | COc1cccc(F)c1COC1(C(F)(F)F)CN(C)C(=O)Nc2ccc(Cl)cc21 (stereo not drawn)
156 to 157 | CNC(=O)NC(CCSC)C(N)=O (racemic)
136 to 139 | CCOC(=O)C(=O)Nc1ccc(NS(C)(=O)=O)cc1
155 | CSc1ccc(N2CCOCC2)c(NC(=N)C(C)C)c1
40 to 47 | COC(=O)c1ccc(CC(C)=O)cc1
256 to 259 | CCOC(=O)c1cn(-c2ccc(F)cc2)c2cc(F)c(F)c(C)c2c1=O
181 to 183 | CCCCc1nn(-c2cc(NC(=O)CC)ccc2C(F)(F)F)c(=O)n1Cc1ccc(-c2ccccc2S(=O)(=O)NC(=O)c2ccccc2Cl)cc1F

melting point [°C] | Compound
133 to 135 | CC(=O)c1ccc(OCCCOc2cc(NC(=O)C(=O)O)c(C)cc2Br)c(CCC(F)(F)F)c1O
252 to 254 | NC(CSCc1ccccc1C(=O)O)C(=O)O (stereo not drawn)
190 to 191 | Cc1cnc(C2=NC(C)(C(C)C)C(=O)N2)c(C(O)(c2cccs2)c2cccs2)c1 (stereo not drawn)
91 | CC(C)(C)OC(=O)N1CC[C@H](CNCc2ccccc2)[C@@H](O)C1
182 | O=C(OC(c1ccccc1)c1ccccc1)C(=O)N1C(=O)[C@@H]2N=C(c3ccccc3)O[C@@H]21
155 to 157 | C#CC[C@@H](NC(=O)OC(C)(C)C)c1nc2cc(Cl)ccc2c(=O)n1Nc1ccccc1
140 | CC(=O)NC1=C(c2cccc(C(F)(F)F)c2)C(=O)OC1
218 to 220 | Cc1cccc(C(=O)NCc2cccc3c2C(=O)N(C2CCC(=O)NC2=O)C3=O)c1 (stereo not drawn)
75 to 80 | CCCCC(c1cccc(C(F)(F)F)c1)n1ccc2cc(-c3ccccc3-c3nn[nH]n3)ccc21 (stereo not drawn)
187 to 190 | CN(C)c1ccc(-c2ccc(C(=O)Nc3cccc(CC(=O)O)c3)o2)cc1
94 to 95 | COCN1C(C)=C(C(=O)OCc2ccccc2)C(c2ccccc2C(F)(F)F)C(C(=O)OCc2ccccc2)=C1C
273 | CC(C)(C)c1ccccc1N1CCN(C(=O)C2CCC(=O)N2CC(=O)O)CC1 (stereo not drawn)
150 to 153 | O=C(N[C@@H](CSc1ccc(C(F)(F)F)cc1[N+](=O)[O-])C(=O)O)OCc1ccccc1
111 to 112 | COc1ccc(-c2ccc(Cl)nn2)c(OCC2CO2)c1 (stereo not drawn)
84 to 86 | C=CCC1Oc2ccccc2-c2c(OC)cc3c(c21)C(C)=CC(C)(C)N3 (stereo not drawn)
59 to 61 | Cc1cc(C)cc(Cc2c(C(C)C)c(=O)[nH]c(=O)n2COCCCN(OC(=O)Oc2ccccc2)C(=O)Oc2ccccc2)c1
115 to 117 | Cc1ccc(CSc2nc3cscc3n2C(=O)OC(C)(C)C)nc1
104 to 107 | COc1ccc(C(=O)c2ccccn2)c(Cl)c1Cl
120 to 121 | CCCc1cc2c(cc1C=Cc1ccc(C(=O)OC)cc1)C(C)(C)CCC2(C)C
154 to 155 | O=C1Nc2cccnc2N(C(=O)NCCN2CCCCC2CCCCN2CCCCC2)c2ccccc21 (stereo not drawn)
115 to 116 | COC(=O)c1c(Nc2ccccc2)nn(C(C)=O)c1C
185 to 187 | CCOC(=O)c1cn(C2CC2)c2cc(F)c(F)c(C)c2c1=O
238 to 240 | O=C(O)C[C@H]1CCCC[C@H]1n1nc(-c2c(-c3ccccc3)nn3ccccc23)ccc1=O (relative stereo)
190 | O=C(O)c1ccc(CCCc2c(CCNS(=O)(=O)Cc3ccc(Cl)c(Cl)c3)n(C(c3ccccc3)c3ccccc3)c3ccc(Cl)cc23)cc1
131 to 132 | Cc1ccc(CC2(OCc3ccccc3)CCN(CC3Cc4cc(O)ccc4C3O)CC2)cc1 (stereo not drawn)
81 to 84 | CNC(Cc1ccccc1NC(=O)C(C)(C)C)c1ccsc1 (stereo not drawn)

More lines, now with the values behind:

Compound | melting point [°C]
CC(=O)Nc1ccccc1N1CCOCC1 | 140 to 141
OC1(CN2c3ccccc3Sc3ccccc32)CN2CCC1CC2 (stereo not drawn) | 127 to 130
COc1cccc(CCNC2(c3ccccc3Cl)C(=O)Nc3ccc(Cl)cc32)c1 (stereo not drawn) | 155 to 160
O=C(C1CCCCO1)N1CCNCC1 (stereo not drawn) | 53 to 58
Clc1cc(-c2ccccc2)nc(Cl)n1 | 80 to 85
COc1cc2c(cc1C)CCN=C2C1(c2ccsc2)CC1 | 116 to 118
N#CN=C(Nc1cccnc1)NC(NC(=O)c1ccc(Cl)cc1)C1CC1 (stereo not drawn) | 137 to 139
O=C(O)c1ccc2c(c1)ncn2-c1cc(Cl)ccc1O | 308 to 310
N#C[C@H]1CC(F)(F)CN1C(=O)CNC1(CO)CCC2(CCOCC2)CC1 | 128
O=c1cc(C(F)(F)F)nc(ON=C2CCCC2)n1-c1cc(Oc2ccccc2[N+](=O)[O-])c(Cl)cc1F | 76 to 78
Cc1ccc2c(c1)C(=O)c1cccn1-2 | 85
O=C1CCC(N2Cc3c(OCc4ccc(C(F)(F)F)cc4)cccc3C2=O)C(=O)N1 (stereo not drawn) | 241 to 243
CC(C)(C)NC(=O)C(Br)CCl (stereo not drawn) | 163 to 168
O=[N+]([O-])c1cc(-c2ncnc(C(F)F)c2Cl)c(Cl)cc1Cl | 107 to 109
O=C(Cl)c1sc2ccc(OCc3ccccc3)cc2c1Cl | 139 to 142
O=S(c1ccccc1)c1ccc(Cc2csc(Br)n2)cc1 (stereo not drawn) | 82
O=C(C(Cl)Cl)N1CCN(c2ccc([N+](=O)[O-])cc2)CC1 | 155
O=C1CCCc2ccccc2N1Cc1cccc(Br)c1 | 81 to 82
C=CCN(C)C(=O)Nc1cc(C(C)(C)C)on1 | 90 to 91
C=CCNc1nc(CO)cs1 | 74 to 75
O=C(CC1CCCCC1=O)c1ccc(Br)cc1 (stereo not drawn) | 78 to 80
O=C(CSc1ccccc1)C1CCCCN1 (stereo not drawn) | 68.5 to 69.5
Nc1c(SC(F)(F)F)nc(Br)n1-c1c(Cl)cc(C(F)(F)F)cc1Cl | 154

Compound | melting point [°C]
C#Cc1ccc(C2SCC(C(C)(C)C)CS2)cc1 (stereo not drawn) | 149
O=Cc1ccc(OCCC2Oc3ccccc3N(Cc3cccc(Cl)c3)C2=O)cc1 (stereo not drawn) | 130 to 131
COc1cc(-c2ccc(=O)[nH]n2)ccc1OC(F)F | 170
O=C1NC=NC2CN=C(c3ccccc3)c3cc(Cl)ccc3C12 (stereo not drawn) | 150 to 155
CCCNC(=O)N(CC(=O)OCC)CC1CC2c3cccc4[nH]cc(c34)CC2N(C)C1 (stereo not drawn) | 109 to 110
CC(C(N)=S)(c1ccccc1)c1ccccn1 (stereo not drawn) | 186 to 188
COc1cc(N2CCC(N3CCCN(C)CC3)CC2)ccc1Nc1ncc2ccc(-c3ccccc3N(C)S(C)(=O)=O)n2n1 | 100 to 109
FC(F)Oc1cc(Oc2ccnc(-c3cnccn3)n2)ccn1 | 128 to 129
c1cc(-c2ccn3cnnc3c2)ccn1 | 194 to 196
Nc1cc(Oc2ccc(NC(=O)Nc3ccc(-c4ccccn4)c(C(F)(F)F)c3)cc2)ncn1 | 188 to 192
Cc1oc2c(NC(=O)c3c(Cl)cccc3Cl)cccc2c1CC1CCCCC1 | 189 to 190
CNC(=O)C1(Oc2ccc3c(c2)c(-c2cc4cccnc4[nH]2)cn3C)CCC1 | 249 to 250
Clc1ncn(CCOc2ccc(Oc3ccccc3)cc2)c1Cl | 89 to 91
O=C1CCS(=O)(=O)C1=NO | 148
COc1ccc(Cl)cc1-n1cc[nH]c1=O | 133 to 134
NC(=O)c1c(N2CCN(Cc3ccccc3)CC2)nn2c(-c3ccncc3)ccnc12 | 205 to 206
COc1cc(N)c2ncccc2c1OCC(F)(F)F | 91 to 94
CSc1ccc(Oc2ccc(C#N)cc2)cc1 | 65 to 66
O=C(O)C(O)c1ccc(-n2cccc2)cc1 (stereo not drawn) | 168
O=C(O)c1ccc(-c2nc(-c3ccc(Cl)cc3)no2)c([N+](=O)[O-])c1 | 257 to 258
S=C(Nc1ccc(Cl)c(Cl)c1)Nc1ncccc1OCc1ccccc1 | 144 to 146
CCOc1cc(-c2cc(C(F)(F)F)n3cnc(-c4ccncc4)c3n2)ccc1C(F)(F)F | 212
